Test results as given in patent US10253002B2, “Compounds and methods of treating infections” (Neoculi Pty Ltd., priority 2013, dated 2019).
Like-named read-outs stand apart in the source and are kept apart here.

Legend:
Streptococcus pneumoniae = assay: Broth microdilution MIC (CLSI) in 4% LHB-CAMHB, Example 1; format: cell-based
Protocol: The powder was dissolved in 10 mL DMSO and 1 mL volumes were aliquoted into eppendorf tubes and stored at -80° C. […] Serial dilutions were prepared in 96 well plates were set up in a safety cabinet according to methods standard in the art. Briefly: 90 μL of the working antibiotic solution was added to each well in Column 12 of the plate, and mixed well, before 90 μL was transferred to column 11. The solutions were mixed again, and then transferred to the next column as before, continuing the dilutions through to column 3. Mixing the well requires the pick up and expulsion of 90 μL in each well 3-4 times before picking up and transferring the 90 μL to the next well. […] The bacterial solution was placed into a sterile trough and 10 μL of bacterial solution added into wells 2 through to 12 on each required row (dilution of 1:10, with final concentration of bacteria in wells=5×10^5 CFU/mL). The tray was sealed and incubated at 37° C. for 18-24 h. The purity of bacterial suspension was confirmed by streaking out 50 μL of the 1:20 dilution onto a SBA plate, which was incubated for 37° C. for 18 h and examined. Viable counts were carried out to ensure that the correct concentration of bacteria and been added to the wells. […] The following day the number of colonies on the plates was counted and the average count in 100 μL obtained. The study was multiplied by 10 to obtain a viable bacterial count per mL. Minimum inhibitory concentrations (μg/mL) were determined using the broth microdilution method recommended by the Clinical and Laboratory Standards Institute (CLSI) (Methods for Dilution Antimicrobial Susceptibility Tests for Bacteria That Grow Aerobically; Approved Standard-Seventh Edition. CLSI M7-A7, 2006; Performance Standards for Antimicrobial Disk and Dilution Susceptibility Tests for Bacteria Isolated from Animals; Approved Standard-Second Edition. CLSI […]-A2, 2002; Performance Standards for Antimicrobial Susceptibility Testing; CLSI M2-A9, 2006). […] Bacterial growth (turbidity) in the wells with antimicrobial was compared with the amount of growth (turbidity) in the growth-control well (containing no antimicrobial). All isolates were tested in duplicate, if there was a difference of greater than one two-fold dilution in the results, the test was repeated a third time. The purity of the isolates was closely monitored during testing by subculturing the prepared bacterial inoculum onto SBA. Control organisms (Enterococcus faecalis strain ATCC 29212, S. aureus strain ATCC 29213 and S. pneumoniae strain ATCC 49619) were used throughout the testing to monitor quality control. […] The MIC50, MIC90 and MIC range (minimum and maximum) were calculated for each of the bacterial groups.

VRE = assay: Broth microdilution MIC, Example 7 (NCL812 and analogues); format: cell-based, Enterococcus spp.; conditions: Enterococcus, VRE
Method in brief: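 Turbidity read visually and then at 600 nm defined the MIC (μg/ml), comparing drug-containing wells with a growth-control well lacking antimicrobial. Testing followed the CLSI broth microdilution method, in duplicate, using two strains per organism group.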

CC1(C)S[C@@H]2[C@H](NC(=O)[C@H](N)c3ccccc3)C(=O)N2[C@H]1C(=O)O [Ampicillin]
< 0.06 µg/mL: MIC (Streptococcus pneumoniae; Streptococcus pneumoniae, Strep. pneumoniae 10, Test 1, read-out: MIC) | MIC (Streptococcus pneumoniae; Streptococcus pneumoniae, Strep. pneumoniae 10, Test 2, read-out: MIC) | MIC (Streptococcus pneumoniae; Streptococcus pneumoniae, Strep. pneumoniae 12, Test 1, read-out: MIC) | MIC (Streptococcus pneumoniae; Streptococcus pneumoniae, Strep. pneumoniae 12, Test 2, read-out: MIC) | MIC (Streptococcus pneumoniae; Streptococcus pneumoniae, Strep. pneumoniae 13, Test 1, read-out: MIC) | MIC (Streptococcus pneumoniae; Streptococcus pneumoniae, Strep. pneumoniae 13, Test 2, read-out: MIC) | MIC (Streptococcus pneumoniae; Streptococcus pneumoniae, Strep. pneumoniae 14, Test 1, read-out: MIC) | MIC (Streptococcus pneumoniae; Streptococcus pneumoniae, Strep. pneumoniae 14, Test 2, read-out: MIC)
< 0.25 µg/mL: MIC (Streptococcus pneumoniae; Streptococcus pneumoniae, ATCC49619, Strep. pneumoniae ATCC 49619, Test 1, read-out: MIC) | MIC (Streptococcus pneumoniae; Streptococcus pneumoniae, ATCC49619, Strep. pneumoniae ATCC 49619, Test 2, read-out: MIC) | MIC (Streptococcus pneumoniae; Streptococcus pneumoniae, Strep. pneumoniae 1, Test 1, read-out: MIC) | MIC (Streptococcus pneumoniae; Streptococcus pneumoniae, Strep. pneumoniae 2, Test 2, read-out: MIC) | MIC (Streptococcus pneumoniae; Streptococcus pneumoniae, Strep. pneumoniae 3, Test 1, read-out: MIC) | MIC (Streptococcus pneumoniae; Streptococcus pneumoniae, Strep. pneumoniae 3, Test 2, read-out: MIC) | MIC (Streptococcus pneumoniae; Streptococcus pneumoniae, Strep. pneumoniae 4, Test 1, read-out: MIC) | MIC (Streptococcus pneumoniae; Streptococcus pneumoniae, Strep. pneumoniae 4, Test 2, read-out: MIC) | MIC (Streptococcus pneumoniae; Streptococcus pneumoniae, Strep. pneumoniae 5, Test 1, read-out: MIC) | MIC (Streptococcus pneumoniae; Streptococcus pneumoniae, Strep. pneumoniae 6, Test 2, read-out: MIC) | MIC (Streptococcus pneumoniae; Streptococcus pneumoniae, Strep. pneumoniae 7, Test 1, read-out: MIC) | MIC (Streptococcus pneumoniae; Streptococcus pneumoniae, Strep. pneumoniae 8, Test 1, read-out: MIC) | MIC (Streptococcus pneumoniae; Streptococcus pneumoniae, Strep. pneumoniae 8, Test 2, read-out: MIC) | MIC (Streptococcus pneumoniae; Streptococcus pneumoniae, Strep. pneumoniae 9, Test 2, read-out: MIC) | MIC50 (Streptococcus pneumoniae; Streptococcus pneumoniae, Str. pneumoniae, 20 isolates) | MIC (Streptococcus pneumoniae; Streptococcus pneumoniae, Str. pneumoniae, 20 isolates, read-out: MIC mode)
2 µg/mL: MIC (Streptococcus pneumoniae; Streptococcus pneumoniae, Strep. pneumoniae 16, Test 1, read-out: MIC) | MIC (Streptococcus pneumoniae; Streptococcus pneumoniae, Strep. pneumoniae 16, Test 2, read-out: MIC) | MIC (Streptococcus pneumoniae; Streptococcus pneumoniae, Strep. pneumoniae 20, Test 1, read-out: MIC) | MIC (Streptococcus pneumoniae; Streptococcus pneumoniae, Strep. pneumoniae 20, Test 2, read-out: MIC) | MIC (VRE; VRE 010 [H26c(w)], Phase I, 1st, read-out: MIC) | MIC (VRE; VRE 010 [H26c(w)], Phase I, 2nd, read-out: MIC) | MIC (VRE; VRE 013 [H37c(w)], Phase I, 1st, read-out: MIC) | MIC (VRE; VRE 013 [H37c(w)], Phase I, 2nd, read-out: MIC)
1 µg/mL: MIC (VRE; VRE 002 [H12c], Phase I, 1st, read-out: MIC) | MIC (VRE; VRE 002 [H12c], Phase I, 2nd, read-out: MIC) | MIC (VRE; VRE 004 [H16c], Phase I, 1st, read-out: MIC) | MIC (VRE; VRE 004 [H16c], Phase I, 2nd, read-out: MIC) | MIC (VRE; VRE 005 [H17c], Phase I, 1st, read-out: MIC) | MIC (VRE; VRE 005 [H17c], Phase I, 2nd, read-out: MIC) | MIC (VRE; VRE 006 [H19t], Phase I, 1st, read-out: MIC) | MIC (VRE; VRE 006 [H19t], Phase I, 2nd, read-out: MIC) | MIC (VRE; VRE 007 [H23c], Phase I, 1st, read-out: MIC) | MIC (VRE; VRE 007 [H23c], Phase I, 2nd, read-out: MIC) | MIC (VRE; VRE 008 [H16c(dc)], Phase I, 1st, read-out: MIC) | MIC (VRE; VRE 008 [H16c(dc)], Phase I, 2nd, read-out: MIC) | MIC (VRE; VRE 008 [H16c(dc)], Phase II, 1st, read-out: MIC) | MIC (VRE; VRE 008 [H16c(dc)], Phase II, 2nd, read-out: MIC) | MIC (VRE; VRE 009 [H25c], Phase I, 1st, read-out: MIC) | MIC (VRE; VRE 009 [H25c], Phase I, 2nd, read-out: MIC) | MIC (VRE; VRE 009 [H25c], Phase II, 1st, read-out: MIC) | MIC (VRE; VRE 009 [H25c], Phase II, 2nd, read-out: MIC) | MIC (VRE; VRE 010 [H26c(w)], Phase II, 1st, read-out: MIC) | MIC (VRE; VRE 010 [H26c(w)], Phase II, 2nd, read-out: MIC) | MIC (VRE; VRE 011 [H26c(dc)], Phase I, 1st, read-out: MIC) | MIC (VRE; VRE 011 [H26c(dc)], Phase I, 2nd, read-out: MIC) | MIC (VRE; VRE 013 [H37c(w)], Phase II, 1st, read-out: MIC) | MIC (VRE; VRE 013 [H37c(w)], Phase II, 2nd, read-out: MIC) | MIC (VRE; VRE 014 [H37c(g)], Phase I, 1st, read-out: MIC) | MIC (VRE; VRE 014 [H37c(g)], Phase I, 2nd, read-out: MIC) | MIC (VRE; VRE 014 [H37c(g)], Phase II, 1st, read-out: MIC) | MIC (VRE; VRE 014 [H37c(g)], Phase II, 2nd, read-out: MIC)
< 0.26 µg/mL: MIC (Streptococcus pneumoniae; Streptococcus pneumoniae, Strep. pneumoniae 1, Test 2, read-out: MIC) | MIC (Streptococcus pneumoniae; Streptococcus pneumoniae, Strep. pneumoniae 2, Test 1, read-out: MIC) | MIC (Streptococcus pneumoniae; Streptococcus pneumoniae, Strep. pneumoniae 5, Test 2, read-out: MIC) | MIC (Streptococcus pneumoniae; Streptococcus pneumoniae, Strep. pneumoniae 6, Test 1, read-out: MIC) | MIC (Streptococcus pneumoniae; Streptococcus pneumoniae, Strep. pneumoniae 7, Test 2, read-out: MIC) | MIC (Streptococcus pneumoniae; Streptococcus pneumoniae, Strep. pneumoniae 9, Test 1, read-out: MIC)
0.25 µg/mL: MIC90 (Streptococcus pneumoniae; Str. pneumoniae, 20 isolates) | MIC90 (Streptococcus pneumoniae; Streptococcus pneumoniae isolates of Table 5, Test 1, read-out: MIC90) | MIC90 (Streptococcus pneumoniae; Streptococcus pneumoniae isolates of Table 5, Test 2) | MIC (Streptococcus pneumoniae; Streptococcus pneumoniae, Strep. pneumoniae 15, Test 1, read-out: MIC) | MIC (Streptococcus pneumoniae; Streptococcus pneumoniae, Strep. pneumoniae 15, Test 2, read-out: MIC) | MIC (Streptococcus pneumoniae; Streptococcus pneumoniae, Strep. pneumoniae 18, Test 1, read-out: MIC) | MIC (Streptococcus pneumoniae; Streptococcus pneumoniae, Strep. pneumoniae 18, Test 2, read-out: MIC) | MIC (Streptococcus pneumoniae; Streptococcus pneumoniae, Strep. pneumoniae 19, Test 1, read-out: MIC) | MIC (Streptococcus pneumoniae; Streptococcus pneumoniae, Strep. pneumoniae 19, Test 2, read-out: MIC) | MIC (VRE; 24 h, read-out: MIC (μg/ml) at 24 hours, VRE 2, isolate VRE 2, 24 hours, 1st and 2nd replicate rows) | MIC (VRE; VRE 002 [H12c], Phase II, 1st, read-out: MIC) | MIC (VRE; VRE 002 [H12c], Phase II, 2nd, read-out: MIC) | MIC (VRE; VRE 003 [H14t], Phase II, 1st, read-out: MIC) | MIC (VRE; VRE 003 [H14t], Phase II, 2nd, read-out: MIC) | MIC (VRE; VRE 004 [H16c], Phase II, 1st, read-out: MIC) | MIC (VRE; VRE 004 [H16c], Phase II, 2nd, read-out: MIC) | MIC (VRE; VRE 005 [H17c], Phase II, 1st, read-out: MIC) | MIC (VRE; VRE 005 [H17c], Phase II, 2nd, read-out: MIC) | MIC (VRE; VRE 006 [H19t], Phase II, 1st, read-out: MIC) | MIC (VRE; VRE 006 [H19t], Phase II, 2nd, read-out: MIC) | MIC (VRE; VRE 007 [H23c], Phase II, 1st, read-out: MIC) | MIC (VRE; VRE 007 [H23c], Phase II, 2nd, read-out: MIC) | MIC (VRE; VRE 012 [H35t], Phase II, 1st, read-out: MIC)
0.5 µg/mL: MIC (VRE; 24 h, read-out: MIC (μg/ml) at 24 hours, VRE 1, isolate VRE 1, 24 hours, 1st and 2nd replicate rows) | MIC (VRE; VRE 003 [H14t], Phase I, 1st, read-out: MIC) | MIC (VRE; VRE 003 [H14t], Phase I, 2nd, read-out: MIC) | MIC (VRE; VRE 011 [H26c(dc)], Phase II, 1st, read-out: MIC) | MIC (VRE; VRE 011 [H26c(dc)], Phase II, 2nd, read-out: MIC) | MIC (VRE; VRE 012 [H35t], Phase I, 1st, read-out: MIC) | MIC (VRE; VRE 012 [H35t], Phase I, 2nd, read-out: MIC) | MIC (VRE; VRE 012 [H35t], Phase II, 2nd, read-out: MIC)
0.06 µg/mL: MIC (Streptococcus pneumoniae; Streptococcus pneumoniae, ATCC49619, S. pneumoniae strain ATCC 49619, read-out: MIC of control strain (internal quality control))
